From patent publication US9487489B2, “Halogen-substituted pyrazole derivatives as pest-control agents” (BAYER CROPSCIENCE AKTIENGESELLSCHAFT, priority 2013, dated 2016)

Assays:
[1] = system: L1 larvae of the Australian sheep blowfly (Lucilia cuprina); test: Lucilia cuprina test (LUCICU); format: in vivo; settings: application rate 100 ppm; after 2 days
Procedure: E. Lucilia cuprina Test (LUCICU)
(§1) Solvent: dimethyl sulphoxide
To produce a suitable preparation of active compound, 10 mg of active compound are mixed with 0.5 ml of dimethyl sulphoxide, and the concentrate is diluted with water to the desired concentration.
About 20 L1 larvae of the Australian sheep blowfly (Lucilia cuprina) are transferred into a test vessel containing minced horsemeat and the active compound preparation of the desired concentration.
After 2 days, the kill in % is determined 100% means that all of the larvae have been killed; 0% means that none of the larvae have been killed.

[2] = system: larvae of the mustard beetle (Phaedon cochleariae); test: Phaedon cochleariae spray test (PHAECO); format: in vivo; settings: Chinese cabbage leaf discs, after 7 days
Procedure: H. Phaedon cochleariae-spray Test (PHAECO)
Solvents: 78.0 parts by weight of acetone
(§2) • 1.5 parts by weight of dimethylformamide Emulsifier: alkylaryl polyglycol ether
(§3) To produce a suitable preparation of active compound, 1 part by weight of active compound is dissolved using the stated parts by weight of solvent and made up with water comprising an emulsifier concentration of 1000 ppm until the desired concentration is reached. To produce further test concentrations, the preparation is diluted with emulsifier-containing water.
After 7 days, the efficacy in % is determined. 100% means that all of the beetle larvae have been killed; 0% means that none of the beetle larvae have been killed.

[3] = system: engorged adult female cattle ticks (Boophilus microplus); test: Boophilus microplus injection test (BOOPMI Inj); format: in vivo; settings: application rate 20 μg/animal; injection into abdomen; assessed after 7 days
Procedure: C. Boophilus microplus-injection Test (BOOPMI Inj)
as §1
To produce a suitable preparation of active compound, 10 mg of active compound are mixed with 0.5 ml of solvent, and the concentrate is diluted with solvent to the desired concentration.
1 μl of the active compound solution is injected into the abdomen of 5 engorged adult female cattle ticks (Boophilus microplus). The animals are transferred into dishes and kept in a climate-controlled room.
The activity is assessed after 7 days by laying of fertile eggs. Eggs whose fertility is not visible from the outside are stored in a climate-controlled cabinet until the larvae hatch after about 42 days. An efficacy of 100% means that none of the ticks has laid any fertile eggs; 0% means that all eggs are fertile.

[4] = system: adult cat fleas (Ctenocephalides felis); test: Ctenocephalides felis in vitro contact test with adult cat fleas (T1); settings: after 48 h
Procedure: T1. Ctenocephalides felis—in vitro Contact Tests with Adult Cat Fleas
(§4) For the coating of the test tubes, initially 9 mg of active compound are dissolved in 1 ml of acetone p.a. and then diluted with acetone p.a. to the desired concentration. By turning and rocking on an orbital shaker (2 h of rocking rotation at 30 rpm), 250 μl of the solution are distributed homogeneously on the internal walls and the floor of a 25 ml test tube. At 900 ppm active compound solution and 44.7 cm^2 internal surface, an area dose of 5 μg/cm^2 is achieved for homogeneous distribution.
After evaporation of the solvent, the tubes are populated with 5-10 adult cat fleas (Ctenocephalides felis), sealed with a perforated plastic lid and incubated in a horizontal position at room temperature and ambient humidity. After 48 h, the efficacy is determined. To this end, the test tubes are stood upright and the fleas are knocked to the floor of the tube. Fleas which remain motionless on the floor or move in an uncoordinated manner are considered to be dead or moribund.
An efficacy of 100% means that all fleas were dead or moribund. 0% efficacy means that none of the fleas had been damaged.

[5] = system: adult dog ticks (Rhipicephalus sanguineus); test: Rhipicephalus sanguineus in vitro contact test with adult brown dog ticks (T2); settings: after 48 h
Procedure: T2. Rhipicephalus sanguineus-in vitro Contact Tests with Adult Brown Dog Ticks
as §4
After evaporation of the solvent, the tubes are populated with 5-10 adult dog ticks (Rhipicephalus sanguineus), sealed with a perforated plastic lid and incubated in a horizontal position in the dark at room temperature and ambient humidity. After 48 h, the efficacy is determined. To this end, the ticks are knocked to the floor of the tube and incubated on a hotplate at 45-50° C. for at most 5 min Ticks which remain motionless on the floor or move in an uncoordinated manner such that they are not able to deliberately avoid the heat by climbing upwards are considered to be dead or moribund.
An efficacy of 100% means that all ticks were dead or moribund. 0% efficacy means that none of the ticks had been damaged.

[6] = logP determination by HPLC on a reversed-phase column (C18), EEC Directive 79/831 Annex V.A8; format: physicochemical
Procedure: (§5) ^a) Note regarding the determination of the logP values and mass detection: The determination of the given logP values was carried out in accordance with EEC Directive 79/831 Annex V.A8 by HPLC (High Performance Liquid Chromatography) on a reversed-phase column (C18). Agilent 1100 LC system; 50*4.6 Zorbax Eclipse Plus C18 1.8 micron; mobile phase A: acetonitrile (0.1% formic acid); mobile phase B: water (0.09% formic acid); linear gradient from 10% acetonitrile to 95% acetonitrile in 4.25 min, then 95% acetonitrile for a further 1.25 min; oven temperature 55° C.; flow rate: 2.0 ml/min. Mass detection is carried out via an Agilend MSD system.
as §5, with “^*)” for “^a)”

[7] = system: adult cat fleas (Ctenocephalides felis); test: Ctenocephalides felis oral test (CTECFE); format: in vivo; settings: application rate 100 ppm in citrated cattle blood; after 2 days
Procedure: D. Ctenocephalides felis-oral Test (CTECFE)
as §1
To produce a suitable preparation of active compound, 10 mg of active compound are mixed with 0.5 ml of dimethyl sulphoxide. Dilution with citrated cattle blood gives the desired concentration.
About 20 unfed adult cat fleas (Ctenocephalides felis) are placed into a chamber which is closed at the top and bottom with gauze. A metal cylinder whose bottom end is closed with a parafilm is placed onto the chamber. The cylinder contains the blood/active ingredient preparation, which can be imbibed by the fleas through the parafilm membrane.
After 2 days, the kill in % is determined 100% means that all of the fleas have been killed; 0% means that none of the fleas have been killed.

[8] = system: caterpillars of the armyworm (Spodoptera frugiperda); test: Spodoptera frugiperda spray test (SPODFR); format: in vivo; settings: maize leaf discs, after 7 days
Procedure: I. Spodoptera frugiperda-spray Test (SPODFR)
(§6) Solvent: 78.0 parts by weight of acetone
as §2, §3
Leaf discs of maize (Zea mays) are sprayed with an active compound preparation of the desired concentration and, after drying, populated with caterpillars of the armyworm (Spodoptera frugiperda).
After 7 days, the efficacy in % is determined. 100% means that all of the caterpillars have been killed; 0% means that none of the caterpillars have been killed.

[9] = system: greenhouse red spider mite (Tetranychus urticae); test: Tetranychus urticae spray test, OP-resistant (TETRUR); format: in vivo; settings: bean leaf discs, after 6 days
Procedure: J. Tetranychus urticae-spray Test, OP-Resistant (TETRUR)
as §6, §2, §3
Discs of bean leaves (Phaseolus vulgaris) which are infested by all stages of the greenhouse red spider mite (Tetranychus urticae) are sprayed with an active compound preparation of the desired concentration.
After 6 days, the efficacy in % is determined. 100% means that all of the spider mites have been killed; 0% means that none of the spider mites have been killed.

[10] = HPLC on reversed-phase column (C18), acetonitrile/water with formic acid, EEC Directive 79/831 Annex V.A8

Row | SMILES | efficacy (kill in %) [1] | efficacy in % ([2]; application rate 500 g/ha) | efficacy (laying of fertile eggs) [3] | efficacy (dead or moribund fleas) ([4]; application rate 5 μg/cm^2) | efficacy (dead or moribund ticks) ([5]; application rate 1 μg/cm^2) | efficacy in % ([2]; application rate 100 g/ha) | efficacy (kill in %) [7] | also measured
1 | Cn1nc(C(F)(F)C(F)(F)F)c(C(F)(F)F)c1-n1cc(-c2cc(C(=O)NC3CC3)ncc2F)cn1 [Ic-72] | 80% | 100% | 100% |  |  |  |  | 
2 | CONC(=O)c1cc(-c2cnn(-c3c(C(F)(F)F)c(C(F)(F)C(F)(F)F)nn3C)c2)ccc1Cl [Ic-155] |  |  |  | 100% | 100% |  |  | efficacy (dead or moribund fleas) ([4]; application rate 1 μg/cm^2): 100%; efficacy (dead or moribund ticks) ([5]; application rate 5 μg/cm^2): 100%
3 | Cn1nc(C(F)(F)C(F)(F)F)c(C(F)(F)F)c1-n1cc(-c2ccc(Cl)c(C(=O)NCC(=O)NCC(F)(F)F)c2)cn1 [Ic-31] | 90% |  |  |  |  | 100% | 100% | logP [6, 10]: 3.65
4 | Cn1nc(C(F)(F)C(F)(F)F)c(C(F)(F)F)c1-n1cc(-c2cc(C(=O)NC3CC3)c(F)c(F)c2F)cn1 [Ic-201] |  |  |  |  | 100% |  |  | efficacy (dead or moribund ticks) ([5]; application rate 5 μg/cm^2): 100%
5 | N#CC1(NC(=O)c2cc(-c3cnn(-c4c(C(F)(F)F)c(C(F)(F)C(F)(F)F)nn4-c4ncccc4Cl)c3)ccc2Cl)CC1 [Ic-15] |  |  | 80% |  |  | 100% |  | logP [6, 10]: 4.15
6 | Cn1nc(C(F)(F)C(F)(F)F)c(C(F)(F)F)c1-n1cc(-c2cc(Cl)nc(C(=O)NC3(C#N)CC3)c2)cn1 [Ic-89] | 100% | 100% | 100% |  |  |  | 90% | efficacy in % ([8]; application rate 500 g/ha): 83%
7 | O=C(NC1CC1)c1cc(-c2cnn(-c3c(C(F)(F)F)c(C(F)(F)C(F)(F)F)nn3-c3ncccc3Cl)c2)ccc1Cl [Ic-14] | 100% |  | 100% |  |  | 100% |  | logP [6, 10]: 4.28; efficacy in % ([8]; application rate 100 g/ha): 100%
8 | Cn1nc(C(F)(F)C(F)(F)F)c(C(F)(F)F)c1-n1cc(-c2cc(Cl)nc(C(=O)NC3CC3)c2)cn1 [Ic-88] | 100% | 100% | 100% |  |  |  |  | 
9 | Cc1cc(NC(=O)c2cc(-c3cnn(-c4c(C(F)(F)F)c(C(F)(F)C(F)(F)F)nn4C)c3)ccc2Cl)no1 [Ic-148] |  |  |  | 100% | 80% |  |  | 
10 | Cn1nc(C(F)(F)C(F)(F)F)c(C(F)(F)F)c1-n1cnc(-c2ccc(Cl)c(C(=O)NC3(C#N)CC3)c2)n1 [Ie-1] |  |  | 100% |  |  | 100% | 100% | logP ([6]; HPLC, reversed-phase C18, acetonitrile (0.1% formic acid)/water (0.09% formic acid) gradient): 3.62
11 | Cn1nc(C(F)(F)C(F)(F)F)c(C(F)(F)F)c1-n1cc(-c2cc(C(=O)NC3(C#N)CC3)ccc2F)cn1 [Ic-42] | 100% | 100% | 100% |  |  |  | 100% | efficacy in % ([8]; application rate 500 g/ha): 83%
12 | Cn1nc(C(F)(F)C(F)(F)F)c(C(F)(F)F)c1-n1cc(-c2ccc(Cl)c(C(=O)NC3CCC3)c2)cn1 [Ic-143] |  |  |  | 100% | 100% |  |  | efficacy (dead or moribund fleas) ([4]; application rate 1 μg/cm^2): 100%; efficacy (dead or moribund ticks) ([5]; application rate 5 μg/cm^2): 100%
13 | Cn1nc(C(F)(F)C(F)(F)F)c(C(F)(F)F)c1-n1cc(-c2cc(C(=O)NC3CC3)c(Cl)cc2F)cn1 [Ic-92] | 95% | 100% | 100% |  |  |  | 80% | 
14 | CC(NC(=O)c1cc(-c2cnn(-c3c(C(F)(F)F)c(C(F)(F)C(F)(F)F)nn3C)c2)ccc1Cl)C(F)(F)F (stereo not drawn) [Ic-110] |  |  |  | 100% |  | 100% |  | logP [6, 10]: 4.23; efficacy in % ([8]; application rate 100 g/ha): 100%; efficacy in % ([9]; application rate 100 g/ha): 100%
15 | CC(C)CNC(=O)c1cc(-c2cnn(-c3c(C(F)(F)F)c(C(F)(F)C(F)(F)F)nn3C)c2)ccc1Cl [Ic-142] |  | 100% |  | 100% | 80% |  |  | efficacy (dead or moribund fleas) ([4]; application rate 1 μg/cm^2): 100%; efficacy in % ([8]; application rate 500 g/ha): 100%; efficacy (dead or moribund ticks) ([5]; application rate 5 μg/cm^2): 100%; efficacy in % ([9]; application rate 500 g/ha): 100%
